Assays:
[1] = target: T1, human cloned CHRM2 receptor (M2_CHO cells) (Homo sapiens, UniProt P08172); assay: CHRM2 Ca++ Flux Assay (agonist mode, FDSS 7000EX); type: cell-based; conditions: for Emax: Percent Activity measured to EC100 of Carbachol, read-out: M2 FDSS PA; for EC50: agonist mode, geometric mean if tested more than once, read-out: M2 FDSS EC50
T1 construct: expressed in transfected cells; host or cells: CHO-K1
T1 sequence (P08172 1-466): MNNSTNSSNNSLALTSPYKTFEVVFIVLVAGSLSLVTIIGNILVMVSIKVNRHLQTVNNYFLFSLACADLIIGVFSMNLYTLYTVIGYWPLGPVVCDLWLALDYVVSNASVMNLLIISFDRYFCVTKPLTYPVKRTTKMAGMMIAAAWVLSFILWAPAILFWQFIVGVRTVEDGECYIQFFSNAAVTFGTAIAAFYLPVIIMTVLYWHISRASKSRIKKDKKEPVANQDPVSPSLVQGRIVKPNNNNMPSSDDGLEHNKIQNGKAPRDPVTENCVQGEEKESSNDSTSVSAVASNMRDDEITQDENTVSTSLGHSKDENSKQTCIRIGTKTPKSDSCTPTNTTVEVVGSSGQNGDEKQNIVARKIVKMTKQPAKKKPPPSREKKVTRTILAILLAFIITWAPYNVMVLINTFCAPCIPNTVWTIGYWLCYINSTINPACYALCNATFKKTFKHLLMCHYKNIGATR
In short: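 Agonist-mode Ca++ flux in CHO-K1 cells stably expressing human CHRM2, dye-loaded, then held 60 min at room temperature in buffer with 20 μM ATP before compound addition; traces read over 3 minutes. Four-parameter fit of triplicate wells; percent activity relative to Carbachol EC100.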

[2] = target: T2, human cloned CHRM3 receptor (M3_CHO cells) (Homo sapiens, UniProt P20309); assay: CHRM3 Ca++ Flux Assay (agonist mode, FDSS 7000EX); type: cell-based; conditions: for Emax: Percent Activity measured to EC100 of Carbachol, read-out: M3 FDSS PA; for EC50: agonist mode, geometric mean if tested more than once, read-out: M3 FDSS EC50
T2 construct: expressed in transfected cells; host or cells: CHO-K1
In short: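 Agonist responses are measured as calcium mobilization in CHO-K1 cells expressing human M3 or M5, tested over an 11-point dose range in triplicate. Percent activity is normalised to carbachol at EC100.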

T2 sequence (P20309 whole entry): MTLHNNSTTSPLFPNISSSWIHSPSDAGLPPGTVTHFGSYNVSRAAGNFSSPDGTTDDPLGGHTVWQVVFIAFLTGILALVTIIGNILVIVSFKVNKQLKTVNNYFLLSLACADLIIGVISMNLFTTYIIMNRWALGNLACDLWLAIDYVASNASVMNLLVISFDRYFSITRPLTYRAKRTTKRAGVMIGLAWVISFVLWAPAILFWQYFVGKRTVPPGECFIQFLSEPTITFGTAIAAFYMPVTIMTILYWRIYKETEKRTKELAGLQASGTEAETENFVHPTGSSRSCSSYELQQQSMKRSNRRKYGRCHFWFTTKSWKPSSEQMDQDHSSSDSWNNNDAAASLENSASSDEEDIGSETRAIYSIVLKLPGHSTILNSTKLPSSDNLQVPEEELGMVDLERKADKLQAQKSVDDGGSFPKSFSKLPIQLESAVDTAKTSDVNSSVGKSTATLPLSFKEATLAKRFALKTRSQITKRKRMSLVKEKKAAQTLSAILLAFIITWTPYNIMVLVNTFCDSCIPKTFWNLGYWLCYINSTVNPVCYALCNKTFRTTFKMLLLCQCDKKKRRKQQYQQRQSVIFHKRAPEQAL

| SMILES | Emax [1] [%] | Emax [2] [%] | EC50 [2] [µM] | EC50 [1] [µM] |
| --- | --- | --- | --- | --- |
| COc1ccccc1C1CCN([C@@H]2CCC3(C2)CN(c2nc(C)ns2)C3)CC1 [Example 3M, (R)-5-(6-(4-(2-methoxyphenyl)piperidin-1-yl)-2-azaspiro[3.4]octan-2-yl)-3-methyl-1,2,4-thiadiazole] | 0 | 0 | > 25 | – |
| Fc1cncc(N2CC3(CC[C@@H](N4CCC(c5ccccc5C5CCOCC5)CC4)C3)C2)c1 [Example 5AA, (R)-2-(5-fluoropyridin-3-yl)-6-(4-(2-(tetrahydro-2H-pyran-4-yl)phenyl)piperidin-1-yl)-2-azaspiro[3.4]octane] | 28 | 0 | > 25 | 1.77 |
| c1ccc(C2CCN([C@@H]3CCC4(C3)CN(c3cncnc3)C4)CC2)c(C2CCOCC2)c1 [Example 5BB, (R)-2-(pyrimidin-5-yl)-6-(4-(2-(tetrahydro-2H-pyran-4-yl)phenyl)piperidin-1-yl)-2-azaspiro[3.4]octane] | 13 | 0 | > 25 | 0.739 |
| Fc1ccc(N2CC3(CC[C@@H](N4CCC(c5ccccc5C5CCOCC5)CC4)C3)C2)cn1 [Example 5CC, (R)-2-(6-fluoropyridin-3-yl)-6-(4-(2-(tetrahydro-2H-pyran-4-yl)phenyl)piperidin-1-yl)-2-azaspiro[3.4]octane] | 35 | 0 | > 25 | 0.466 |
| COc1ccccc1C1CCN([C@@H]2CCC3(C2)CN(c2cnc(C)cn2)C3)CC1 [Example 5DD, (R)-6-(4-(2-methoxyphenyl)piperidin-1-yl)-2-(5-methylpyrazin-2-yl)-2-azaspiro[3.4]octane] | 0 | 0 | > 25 | > 25 |
| Cc1nccnc1N1CC2(CC[C@@H](N3CCC(c4ccccc4OCC(C)(C)O)CC3)C2)C1 [Example 5T, (R)-2-methyl-1-(2-(1-(2-(3-methylpyrazin-2-yl)-2-azaspiro[3.4]octan-6-yl)piperidin-4-yl)phenoxy)propan-2-ol] | 0 | 0 | > 25 | – |
| CC(C)(O)COc1ccccc1C1CCN([C@@H]2CCC3(C2)CN(c2ncncn2)C3)CC1 [Example 5U, (R)-1-(2-(1-(2-(1,3,5-triazin-2-yl)-2-azaspiro[3.4]octan-6-yl)piperidin-4-yl)phenoxy)-2-methylpropan-2-ol] | 0 | 0 | > 25 | – |
| COc1ccc(F)cc1C1CCN([C@@H]2CCC3(C2)CN(c2ccnnc2)C3)CC1 [Example 5V, (R)-6-(4-(5-fluoro-2-methoxyphenyl)piperidin-1-yl)-2-(pyridazin-4-yl)-2-azaspiro[3.4]octane] | 0 | 0 | > 25 | – |
| Fc1cccc(C2CCN([C@@H]3CCC4(C3)CN(c3cncnc3)C4)CC2)c1OC1COC1 [Example 5W, (R)-6-(4-(3-fluoro-2-(oxetan-3-yloxy)phenyl)piperidin-1-yl)-2-(pyrimidin-5-yl)-2-azaspiro[3.4]octane] | 16 | 0 | > 25 | 0.057 |
| COCCOc1ccccc1C1CCN([C@@H]2CCC3(C2)CN(c2cccnn2)C3)CC1 [Example 5X, (R)-6-(4-(2-(2-methoxyethoxy)phenyl)piperidin-1-yl)-2-(pyridazin-3-yl)-2-azaspiro[3.4]octane] | 0 | 0 | > 25 | – |
| COCCOc1ccccc1C1CCN([C@@H]2CCC3(C2)CN(c2cnc(C)cn2)C3)CC1 [Example 5Y, (R)-6-(4-(2-(2-methoxyethoxy)phenyl)piperidin-1-yl)-2-(5-methylpyrazin-2-yl)-2-azaspiro[3.4]octane] | 0 | 0 | > 25 | < 26 |
| COCCOc1ccccc1C1CCN([C@@H]2CCC3(C2)CN(c2ccnnc2)C3)CC1 [Example 5Z, (R)-6-(4-(2-(2-methoxyethoxy)phenyl)piperidin-1-yl)-2-(pyridazin-4-yl)-2-azaspiro[3.4]octane] | 0 | 0 | > 25 | – |
| COc1ccc(F)cc1C1CCN([C@@H]2CCC3(C2)CN(C(=O)C2COC2)C3)CC1 [Example 6A, (R)-(6-(4-(5-fluoro-2-methoxyphenyl)piperidin-1-yl)-2-azaspiro[3.4]octan-2-yl)(oxetan-3-yl)methanone] | 10 | 0 | – | 0.032 |
| O=C(C1COC1)N1CC2(CC[C@@H](N3CCC(c4ccc(F)cc4OC(F)F)CC3)C2)C1 [Example 6B, (R)-(6-(4-(2-(difluoromethoxy)-4-fluorophenyl)piperidin-1-yl)-2-azaspiro[3.4]octan-2-yl)(oxetan-3-yl)methanone] | 0 | 0 | > 25 | – |
| CC(C)Oc1cc(F)ccc1C1CCN([C@@H]2CCC3(C2)CN(C(=O)C2COC2)C3)CC1 [Example 6D, (R)-(6-(4-(4-fluoro-2-isopropoxyphenyl)piperidin-1-yl)-2-azaspiro[3.4]octan-2-yl)(oxetan-3-yl)methanone] | 0 | 0 | > 25 | – |
| O=C(N1CC2(CC[C@@H](N3CCC(c4ccccc4C4CCOCC4)CC3)C2)C1)C1(F)CC1 [Example 6E, (R)-(1-fluorocyclopropyl)(6-(4-(2-(tetrahydro-2H-pyran-4-yl)phenyl)piperidin-1-yl)-2-azaspiro[3.4]octan-2-yl)methanone] | 0 | 0 | > 25 | – |
| O=C(C1COC1)N1CC2(CC[C@@H](N3CCC(c4ccccc4OC4CC4)CC3)C2)C1 [Example 7A, (R)-(6-(4-(2-cyclopropoxyphenyl)piperidin-1-yl)-2-azaspiro[3.4]octan-2-yl)(oxetan-3-yl)methanone] | 55 | 9 | 9.78 | 0.142 |
| CC(C)(F)COc1ccccc1C1CCN([C@@H]2CCC3(C2)CN(C(=O)C2COC2)C3)CC1 [Example 7B, (R)-(6-(4-(2-(2-fluoro-2-methylpropoxy)phenyl)piperidin-1-yl)-2-azaspiro[3.4]octan-2-yl)(oxetan-3-yl)methanone] | 77 | 0 | > 25 | 0.651 |
| O=C(C1COC1)N1CC2(CC[C@@H](N3CCC(c4ccccc4Oc4nccs4)CC3)C2)C1 [Example 7C, (R)-oxetan-3-yl(6-(4-(2-(thiazol-2-yloxy)phenyl)piperidin-1-yl)-2-azaspiro[3.4]octan-2-yl)methanone] | 0 | 0 | > 25 | – |
| CC(C)(O)CCOc1ccccc1C1CCN([C@@H]2CCC3(C2)CN(C(=O)C2COC2)C3)CC1 [Example 7CC, (R)-(6-(4-(2-(3-hydroxy-3-methylbutoxy)phenyl)piperidin-1-yl)-2-azaspiro[3.4]octan-2-yl)(oxetan-3-yl)methanone] | 0 | 0 | > 25 | – |
| N#CCCOc1ccccc1C1CCN([C@@H]2CCC3(C2)CN(C(=O)C2COC2)C3)CC1 [Example 7D, (R)-3-(2-(1-(2-(oxetane-3-carbonyl)-2-azaspiro[3.4]octan-6-yl)piperidin-4-yl)phenoxy)propanenitrile] | 31 | 0 | > 25 | 0.092 |
| O=C(C1COC1)N1CC2(CC[C@@H](N3CCC(c4ccccc4OCCOC(F)(F)F)CC3)C2)C1 [Example 7DD, (R)-oxetan-3-yl(6-(4-(2-(2-(trifluoromethoxy)ethoxy)phenyl)piperidin-1-yl)-2-azaspiro[3.4]octan-2-yl)methanone] | 0 | 0 | > 25 | – |
| O=C(C1COC1)N1CC2(CC[C@@H](N3CCC(c4ccccc4OC[C@@H]4CCOC4)CC3)C2)C1 [Example 7E, oxetan-3-yl((R)-6-(4-(2-(((R)-tetrahydrofuran-3-yl)methoxy)phenyl)piperidin-1-yl)-2-azaspiro[3.4]octan-2-yl)methanone] | 23 | 0 | > 25 | 0.141 |
| O=C(C1COC1)N1CC2(CC[C@@H](N3CCC(c4ccccc4OCCOC4COC4)CC3)C2)C1 [Example 7EE, (R)-oxetan-3-yl(6-(4-(2-(2-(oxetan-3-yloxy)ethoxy)phenyl)piperidin-1-yl)-2-azaspiro[3.4]octan-2-yl)methanone] | 17 | 0 | > 25 | 0.464 |
| CC(C)COc1ccccc1C1CCN([C@@H]2CCC3(C2)CN(C(=O)C2COC2)C3)CC1 [Example 7F, (R)-(6-(4-(2-isobutoxyphenyl)piperidin-1-yl)-2-azaspiro[3.4]octan-2-yl)(oxetan-3-yl)methanone] | 0 | 0 | > 25 | – |

From US12122761B2, “2-azaspiro[3.4]octane derivatives as M4 agonists” (NOVARTIS AG, priority 2019, dated 2024)
